Data published in patent publication EP4682146A1, “COMPOSITION INCLUDING NOVEL PYRIDOINDOLE DERIVATIVE COMPOUND AS ACTIVE INGREDIENT FOR PREVENTION OR TREATMENT OF NEURODEGENERATIVE DISEASES” (Neurotarge Co., Ltd., priority 2023, dated 2024).

The compounds below were run against T1, Tau-Synaptogyrin3 interaction (Homo sapiens, UniProt O43761+P10636) (assay: Cell-based split luciferase (NanoBit) protein complementary assay for Tau-Synaptogyrin3 interaction in stable cell line HEK293T-TK252-1E2). Conditions: HEK293T-TK252-1E2 cells, 48 hrs compound treatment, L/F value (luciferase activity/fluorescent intensity) compared to DMSO control.
T1 construct: expressed in transfected cells
Protocol: Live cell luciferase assay: Live cell luciferase activity was measured using NanoGlo® Live Cell Assay System (Cat# N2012. Promega, WI, USA), according to manufacturer's instruction. All microplate-based measurement was performed with BioTek Synergy H1 (Agilent. CA, USA).
For producing HEK293T-TK252 stable cell line for screening, BglII-linearized pTK252 was transfected to HEK293T cells. After 24 hrs transfection, the transfected cells were cultured in the culture media containing 1 µg/ml puromycin (10 mM in DMSO, Cat# J61278/ Alfa Aesar. ThermoFisher Korea, Seoul, Korea) for 9 days. Regular media change was performed in every 3 days with fresh puromycin of indicating concentration during the whole selection period. The selected cells were trypsinized and diluted to 5 cells/ml and seeded to 4x 96 well cell culture plates (100 µl/well), and cultured with the cell culture media containing 1 µg/ml puromycin for 11 days. 18 wells that contained only GFP-positive cells were selected for expansion, and cultured with the cell culture media containing 0.1-0.2 µg/ml puromycin for 14 days. 10 clones were discarded during the expansion due to emerging of non-GFP cells, and 8 clones were validated. The selected clone (1E2) was cultured with the cell culture media containing 0.5 µg/ml puromycin for further experiments.
3 µmol of 1,728 compounds were purchased from Otava Chemicals MB (Vilniaus, Lithuania), dissolved into 300 µl DMSO (10 mM) and stored at -80°C. 4x10^4 HEK293T-TK252-1E2 cells were seeded with 100 µl of the cell culture media into 96 white well cell culture plates (Cat# 30196. SPL, Seoul, Korea), 48 hrs prior to compound treatment. For 10 µM compound treatment, 10 mM compound stock was diluted to 50 µM with the cell culture media, and 25 µl of the diluted compound was added to the designated wells of the 96 well plates. For dose-response experiments, the amount of compounds for dilution was adjusted to fit the volume indicated above. After 48 hrs compound treatment, the cells were washed once with OptiMEM and live cell luciferase activity, fluorescent intensity and fluorescence area scan was measured.
1,728 compounds were treated at 10 µM to HEK293T-TK252-1E2 cells and incubated for 48 hrs. […] Single wash step with culture media without FBS was included before measurement to discard dead cells and to remove FBS that affects luciferase assay. […] Fluorescent intensity was taken for normalization, which is expected to be proportion to the cell number at the measuring point. L/F value which is luciferase activity normalized with fluorescent intensity (L/F = Luciferase activity/ Fluorescent intensity) was calculated for all measurements and compared to L/F value of DMSO controls to calculated the size of inhibitory effect. […] Fluorescence area scan (FA) performed right after luciferase activity and fluorescent intensity measurement, to validate total remaining fluorescent cells in a well as a proxy to the cellular toxicity. FA value was in proportion to WST assay results (data not shown), and average CV of triplicates of all measurements was 0.04.
61 compounds were further tested for dose-response profile, based on inhibitory effect that was measured by L/F value (<60%) and FA-based cell viability (>90%) at 10 µM compared to DMSO control. 10 compounds were considered as hit compounds through three times of reproduction.

T1 sequence (P10636 1-441 isoform P10636-8): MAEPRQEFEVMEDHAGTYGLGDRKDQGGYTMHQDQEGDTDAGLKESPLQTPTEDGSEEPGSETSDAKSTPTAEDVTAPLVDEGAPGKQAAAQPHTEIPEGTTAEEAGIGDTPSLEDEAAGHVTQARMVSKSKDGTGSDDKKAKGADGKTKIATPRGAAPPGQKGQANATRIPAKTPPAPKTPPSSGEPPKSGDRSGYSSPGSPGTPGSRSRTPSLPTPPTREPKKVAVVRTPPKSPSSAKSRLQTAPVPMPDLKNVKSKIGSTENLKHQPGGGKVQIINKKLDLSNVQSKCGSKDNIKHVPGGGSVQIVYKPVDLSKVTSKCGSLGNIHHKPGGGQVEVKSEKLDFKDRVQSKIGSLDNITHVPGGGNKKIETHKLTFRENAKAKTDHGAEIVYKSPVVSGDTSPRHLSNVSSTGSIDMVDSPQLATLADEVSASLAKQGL
T1 sequence (O43761 whole entry): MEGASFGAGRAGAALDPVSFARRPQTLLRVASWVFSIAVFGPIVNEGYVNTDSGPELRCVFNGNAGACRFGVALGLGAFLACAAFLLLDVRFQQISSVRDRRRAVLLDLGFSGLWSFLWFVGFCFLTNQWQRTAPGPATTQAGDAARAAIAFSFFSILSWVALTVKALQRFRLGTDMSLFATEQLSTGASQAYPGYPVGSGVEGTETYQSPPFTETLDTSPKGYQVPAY

| SMILES | IC50 |
| --- | --- |
| Cc1ccc(C(=O)N2CCc3[nH]c4ccc(-c5cccc(C#N)c5)cc4c3C2)cn1 [Formula 57, 3-(2-(6-Methylnicotinoyl)-2,3,4,5-tetrahydro-1H-pyrido[4,3-b]indol-8-yl)benzonitrile] | 3 to 12 µM |
| Cc1ccc(C(=O)N2CCc3[nH]c4ccc(-c5ccc(C)cc5)cc4c3C2)cc1 [Formula 37, p-Tolyl(8-(p-Tolyl)-1,3,4,5-tetrahydro-2H-pyrido[4,3-b]indol-2-yl)methanone] | < 3 µM |
| Nc1ccc(-c2ccc3[nH]c4c(c3c2)CN(C(=O)c2ccccc2)CC4)cc1 [Formula 72, (8-(4-Aminophenyl)-1,3,4,5-tetrahydro-2H-pyrido[4,3-b]indol-2-yl)(phenyl)methanone] | < 3 µM |
| O=C(c1ccccc1)N1CCc2[nH]c3ccc(-c4cccnc4)cc3c2C1 [Formula 42, Phenyl(8-(pyridin-3-yl)-1,3,4,5-tetrahydro-2H-pyrido[4,3-b]indol-2-yl)methanone] | 12 to 25 µM |
| Cc1ccc(-c2ccc3[nH]c4c(c3c2)CN(C(=O)c2ccnc(C)c2)CC4)cc1 [Formula 41, (2-methylpyridin-4-yl)(8-(p-tolyl)-1,3,4,5-tetrahydro-2H-pyrido[4,3-b]indol-2-yl)methanone] | 3 to 12 µM |
| Cc1ccccc1-c1ccc2[nH]c3c(c2c1)CN(C(=O)c1ccccc1)CC3 [Formula 23, Phenyl(8-(o-tolyl)-1,3,4,5-tetrahydro-2H-pyrido[4,3-b]indol-2-yl)methanone] | 3 to 12 µM |
| O=C(c1cccnc1)N1CCc2[nH]c3ccc(-c4cccnc4)cc3c2C1 [Formula 31, Pyridin-3-yl(8-(pyridin-3-yl)-1,3,4,5-tetrahydro-2H-pyrido[4,3-b]indol-2-yl)methanone] | 12 to 25 µM |
| Cc1ccc(-c2ccc3[nH]c4c(c3c2)CN(C(=O)c2ccc(C)nc2)CC4)cc1 [Formula 40, (6-methylpyridin-3-yl)(8-(p-tolyl)-1,3,4,5-tetrahydro-2H-pyrido[4,3-b]indol-2-yl)methanone] | < 3 µM |
| O=C(c1ccccc1)N1CCc2[nH]c3ccc(-c4ccc(F)cc4)cc3c2C1 [Formula 64, (8-(4-fluorophenyl)-1,3,4,5-tetrahydro-2H-pyrido[4,3-b]indol-2-yl)(phenyl)methanone] | < 3 µM |
| Cc1ccc(-c2ccc3[nH]c4c(c3c2)CN(C(=O)c2cccnc2)CC4)cc1 [Formula 29, Pyridin-3-yl(8-(p-tolyl)-1,3,4,5-tetrahydro-2H-pyrido[4,3-b]indol-2-yl)methanone] | < 3 µM |
| O=C(c1ccccc1)N1CCc2[nH]c3ccc(Nc4ccc(Cl)cc4)cc3c2C1 [Formula 33, (8-((4-chlorophenyl)amino)-1,3,4,5-tetrahydro-2H-pyrido[4,3-b]indol-2-yl)(phenyl)methanone] | 3 to 12 µM |

What follows are compounds tested on Tau-Synaptogyrin3 interaction (assay: Tau competition assay with phloretin-inducible Tau expression in HEK293T-TK252 clones, luciferase activity). Conditions: clone 1E2 co-transfected with pTK269 and pTK285, 0, 10 and 50 µM phloretin, 48 hours.
Assay type: cell-based, Human
Protocol: • FIG. 1 is a fluorescence microscopy image of the HEK293T cell line transfected with EGFP-fused Tau (pTK231: P(CMV)-Tau-EGFP) and Synaptogyrin 3 (pTK233:P(CMV)-EGFP-Synaptogyrin 3), showing the expression of both proteins 48 hours after transfection. • FIG. 2a is a schematic of the Protein Complementary Assay (PCA) process using the split luciferase method. Split luciferase consists of two fragments of the luciferase enzyme: a small bit (sBit) and a large bit (Lbit). […] Therefore, by fusing each fragment of the split luciferase to Tau and Synaptogyrin3, luciferase activity may be induced as a result of the interaction between Tau and Synaptogyrin3. […] The system includes a synthetic transcriptional activator, TtgA, and a synthetic promoter, PTtgR, prepared based on the flavonoid-regulated TtgR operon of the Pseudomonas putida DOT-T1E strain. In the absence of phloretin, TtgA binds to PTtgR and activates transcription (without phloretin), while in the presence of phloretin, TtgA dissociates from DNA and transcription is not activated (with phloretin). […]
Live cell luciferase assay: Live cell luciferase activity was measured using NanoGlo® Live Cell Assay System (Cat# N2012. Promega, WI, USA), according to manufacturer's instruction. […]

| SMILES | luciferase activity, difference between 0 and 50 µM treatment |
| --- | --- |
| O=C(CCc1ccc(O)cc1)c1c(O)cc(O)cc1O [phloretin] | 2 fold |

These compounds were tested on TtgA / PTtgR phloretin-inducible gene expression system (assay: Phloretin-regulated EGFP expression (pTK269: PCAG-TtgA and pTK274: PTtgR-EGFP) in HEK293T). Conditions: HEK293T co-transfected with pTK269 and pTK274, 0 - 50 µM phloretin, 48 hours.
Assay type: cell-based, Human
Protocol: • FIG. 1 is a fluorescence microscopy image of the HEK293T cell line transfected with EGFP-fused Tau (pTK231: P(CMV)-Tau-EGFP) and Synaptogyrin 3 (pTK233:P(CMV)-EGFP-Synaptogyrin 3), showing the expression of both proteins 48 hours after transfection. • FIG. 2a is a schematic of the Protein Complementary Assay (PCA) process using the split luciferase method. Split luciferase consists of two fragments of the luciferase enzyme: a small bit (sBit) and a large bit (Lbit). […] Therefore, by fusing each fragment of the split luciferase to Tau and Synaptogyrin3, luciferase activity may be induced as a result of the interaction between Tau and Synaptogyrin3. […] The system includes a synthetic transcriptional activator, TtgA, and a synthetic promoter, PTtgR, prepared based on the flavonoid-regulated TtgR operon of the Pseudomonas putida DOT-T1E strain. In the absence of phloretin, TtgA binds to PTtgR and activates transcription (without phloretin), while in the presence of phloretin, TtgA dissociates from DNA and transcription is not activated (with phloretin). […] In the stable cell line HEK293T-TK252 expressing Lbit-Tau and sBit-Synaptogyrin3, expression of Tau protein to which split luciferase is not fused, can lead to a decrease in luciferase signal. […]

| SMILES | EGFP signal, difference between 0 and 50 µM treatment |
| --- | --- |
| O=C(CCc1ccc(O)cc1)c1c(O)cc(O)cc1O [phloretin] | 4 fold |
